From the OPERA property sets (Mansouri et al. 2018)

Conditions: for log10 BCF / log10 biotransformation half-life (days): fish

Structure (SMILES)	boiling point	melting point	log10 vapour pressure (mmHg)	also measured
CCC=Cc1ccccc1	199 °C	-43.1 °C		
Cc1c(C(C)C)c(=O)n(-c2ccccc2)n1C		103 °C		
COc1cc(OC)nc(N=C(O)NS(=O)(=O)N(C)S(C)(=O)=O)n1		162 °C	-6.78	
CCCCSC	124 °C	-97.8 °C	1.19	
C=CCN(CC=C)CC=C	156 °C		0.561	ready biodegradability: not readily biodegradable; log10 BCF: 0.55
C=C/C=C\CC1=C(C)[C@@H](OC(=O)[C@@H]2[C@@H](/C=C(\C)C(=O)OC)C2(C)C)CC1=O			-6.4	
CC[C@@H](O)[C@@H]1CCCCN1	226 °C	121 °C		
Oc1c(C2CCCCC2)cccc1C1CCCCC1				ready biodegradability: not readily biodegradable; log10 BCF: 3.02; log10 biotransformation half-life (days): 0.2
CCCCCCCCCCCCCCCCCCN(C)C		22.9 °C		
CBr	3.5 °C	-93.7 °C	3.21	log10 Henry constant (atm·m³/mol): -2.13; log10 Koc (L/kg): 1.34; ready biodegradability: not readily biodegradable
COc1ccc(C(O)(c2cncnc2)C2CC2)cc1 (stereo unspecified)		110 °C	-6.7	log10 Henry constant (atm·m³/mol): -10.8; log10 Koc (L/kg): 2.08
CCC(C(N)=O)n1nc2ccccc2n1 (stereo unspecified)		128 °C		
Nc1c(Cl)cc(C(=O)O)cc1Cl		292 °C		
Clc1cc(Cl)c(Cl)c(-c2c(Cl)c(Cl)cc(Cl)c2Cl)c1Cl				log10 Henry constant (atm·m³/mol): -4.74; log10 Koc (L/kg): 6.36; log10 BCF: 5.82
CCC(N)C(=O)O (stereo unspecified)		304 °C		
Ic1ccccc1	188 °C	-31.3 °C	0.0253	log10 Koc (L/kg): 3.1
C1=CC2CCC1C2	96 °C	45 °C	1.59	
CCC(Cc1c(I)cc(I)c(N)c1I)C(=O)O (stereo unspecified)		155 °C		
COc1c(O)cc(Cl)c(Cl)c1Cl			-3.05	log10 Koc (L/kg): 2.8; ready biodegradability: not readily biodegradable; log10 BCF: 2.41; log10 biotransformation half-life (days): 0.11
OCC(Cl)Cl	146 °C			
CCC(C)(C)c1ccccc1	192 °C			ready biodegradability: not readily biodegradable
C[C@@H](N)c1ccccc1				ready biodegradability: not readily biodegradable
NCC(=O)O				ready biodegradability: readily biodegradable
CCCC(=O)OCC	122 °C	-98 °C	1.11	log10 Koa: 3.56
c1ccc2nccnc2c1	230 °C	28 °C		

Structure (SMILES)	boiling point	melting point	log10 vapour pressure (mmHg)	also measured
CCCCNS(=O)(=O)c1ccccc1	314 °C			ready biodegradability: not readily biodegradable
Clc1ccc2c(Cl)ccc(Cl)c2c1				log10 Koa: 7.27
CC(=O)OCC(C)OC(C)=O (stereo unspecified)	190 °C			
c1ccc2cc3c(ccc4ccccc43)cc2c1	438 °C		-6.68	log10 Henry constant (atm·m³/mol): -4.92; log10 Koc (L/kg): 5.3; log10 biodegradation half-life (days): 2.46; ready biodegradability: not readily biodegradable; log10 BCF: 2.41; log10 biotransformation half-life (days): 0.02
CCc1cccc(Cl)c1	184 °C	-55 °C		
c1ccc(-c2ccc3ccccc3n2)cc1	363 °C	86 °C		
Cc1ccc(C(=O)Cl)cc1	226 °C	-3 °C		
C=CCCC(C)=O	130 °C		1.02	
BrCC(Br)(Br)Br		0 °C		
CCOc1ccc2nc3cc(N)ccc3c(N)c2c1		226 °C		
Nc1ncn([C@@H]2O[C@H](CO)[C@@H](O)[C@H]2O)c(=O)n1		229 °C		
CCC(C)(c1ccc(O)cc1)c1ccc(O)cc1		120 °C		
CCCCCC[C@H](C)I	210 °C		0.136	
CC(C)(C)N=C=S	140 °C	10.5 °C		
C=CC(=O)OCC(CC)CCCC (stereo unspecified)	214 °C	-90 °C	-0.75	ready biodegradability: readily biodegradable
CC(C)CO[N+](=O)[O-]	123 °C		0.919	log10 Henry constant (atm·m³/mol): -2.65
COc1cc(C=C2CCCC(=Cc3ccc(O)c(OC)c3)C2=O)ccc1O		178 °C		
CCCCCCCCCC[C@H](O)CC		32 °C		
C[Si](Cl)(c1ccccc1)c1ccccc1	295 °C			
O=P(O)(O)OCC(O)CO (stereo unspecified)		-25 °C		
COC(=O)N/N=C/c1c[n+]([O-])c2ccccc2[n+]1[O-]		240 °C		
c1ccc(-c2ccc3ncccc3c2)cc1		110 °C		
O=C(O)c1cc(F)c(F)c(F)c1F		86 °C		
CC(C)(C)SC(C)(C)C	149 °C	-9 °C		
O=C(O)c1c(F)c(F)c(F)c(F)c1C(=O)O		163 °C		

Structure (SMILES)	boiling point	melting point	log10 vapour pressure (mmHg)	also measured
OC[C@@H](O)[C@@H](O)CO	330 °C	122 °C		
O=C(O)c1ccncc1		315 °C		
c1ccc(Cc2cccc3ccccc23)cc1	350 °C	59.5 °C		
CC=Cc1ccc(OCC)c(O)c1		87 °C		
Fc1cc(F)cc(F)c1	75.5 °C	-5.5 °C	2.02	
O=c1ccc2cc3ccoc3c(O)c2o1		252 °C		
Cc1cccc(C)c1N	215 °C	11.2 °C	-0.886	ready biodegradability: not readily biodegradable
COc1cc2c3c(c4ccc(OC)c(OC)c4c2cc1OC)CN1CCC[C@H]1C3		220 °C		
N#CC1CC2C=CC1C2 (stereo unspecified)		13 °C		
CC(C)[C@]12CC(=O)[C@H](C)[C@H]1C2	203 °C		-0.385	
CC(=O)c1cc(C(C)C)ccc1C	250 °C			
O=C(O)COc1ccc(Cl)cc1Cl		140 °C	-4.08	log10 Koc (L/kg): 1.66; ready biodegradability: not readily biodegradable
COc1cccc(C(=O)O)c1OC		123 °C	-5.73	
CCCCCCCCC=O	191 °C		-0.432	log10 Henry constant (atm·m³/mol): -3.13
CCN(CC)CCOC(=O)C(O)(c1ccccc1)c1ccccc1		51 °C		
CCCCCCC=NO	195 °C	57.5 °C		
C=CCCCCCCCCCCCCCCCCCC	341 °C	28.5 °C	-4.98	
CCCCC(=O)N(C)C		-51 °C		
CCOc1ccc(C)cc1	188 °C			
CSC(=O)c1c(C(F)F)nc(C(F)(F)F)c(C(=O)SC)c1CC(C)C		65 °C		
COc1ccc(N)c(C)c1	248 °C	29.5 °C		
CC(C)(C)C(C)(C)O	131 °C	17 °C		
c1ccc(CC2CCNCC2)cc1	270 °C	16.8 °C		
CCN(CC)C(=O)c1cccc(C)c1	290 °C	-45 °C	-2.7	ready biodegradability: not readily biodegradable; log10 BCF: 0.38
CN1CCCN=C1/C=C/c1cccs1		178 °C		

Structure (SMILES)	boiling point	melting point	log10 vapour pressure (mmHg)	also measured
COc1cccc2c1C(=O)c1c(O)c3c(c(O)c1C2=O)C[C@@](O)(C(=O)CO)C[C@@H]3O[C@H]1C[C@H](N)[C@H](O)[C@H](C)O1		230 °C		
CCOCCOc1ccccc1	230 °C			
COc1ccc(N)c([N+](=O)[O-])c1		124 °C		ready biodegradability: not readily biodegradable; log10 BCF: 0.85; log10 biotransformation half-life (days): -0.87
C=C(Cl)C(Cl)CCl (stereo unspecified)	155 °C		0.274	
CCCCCCCCCCCCCCCCCl	322 °C	17.9 °C	-4.21	
CCCC(C)=O	102 °C	-76.9 °C	1.55	log10 Henry constant (atm·m³/mol): -4.08; log10 Koa: 3.19
O=C(C=Cc1ccccc1)NCCO		101 °C		
CCC(C(=O)O)c1ccc(CC(C)C)cc1 (stereo unspecified)		52 °C		
CCOC(=O)CC1CCCCC1	211 °C			
O=c1c2cc(F)ccc2nc(-n2cncn2)n1-c1ccc(Cl)cc1Cl		192 °C	-10.3	log10 Henry constant (atm·m³/mol): -10.7
CCCCCCCCCCC(=O)OCC		-15 °C	-2.37	
O=C(Cl)CCl	106 °C	-22 °C	1.4	
OCN(CO)c1nc(N(CO)CO)nc(N(CO)CO)n1		137 °C		
CCC(CC)CC(C)(C)C	147 °C			
CCC=CC(C)C			1.88	
c1ccc(-c2ncc[nH]2)cc1	340 °C	149 °C		
CCC(=NO)C(C)=NO		172 °C		
CC1=CCCC(C)(C)C1/C=C/C(C)=C/C=C/C(C)=C/C=C/C=C(C)/C=C/C=C(C)/C=C/C1=C(C)CCCC1(C)C (stereo unspecified)		188 °C		
CC1=NN(c2ccccc2)C(=O)C1		129 °C		
FC(Br)C(F)(F)F (stereo unspecified)	8.6 °C	-80 °C		log10 Henry constant (atm·m³/mol): -1.24
N#CCC#N	218 °C	32 °C	-0.698	
C=C(C)C(=O)OCCOCCOC(=O)C(=C)C				ready biodegradability: readily biodegradable
CC(=O)CC(=O)OCCCl	198 °C			
CC(F)=C(Cl)Cl	78 °C			
CCCCCCCCN	180 °C	0 °C	-0.0137	

Structure (SMILES)	boiling point	melting point	log10 vapour pressure (mmHg)	also measured
CCOP(=O)(N=C1SCS1)OCC			-5.19	
O=S(O)c1ccccc1		84 °C		ready biodegradability: not readily biodegradable
Cc1cccc(O)c1[N+](=O)[O-]		37 °C	-1.43	log10 Henry constant (atm·m³/mol): -5.51
CC(=O)CCCC(C)C	167 °C			
NC(=O)C(=O)O			-6.33	
C=CC(=O)OCC(CO)(COC(=O)C=C)COC(=O)C=C				ready biodegradability: not readily biodegradable
CN1CCCC1	81 °C		2	log10 Henry constant (atm·m³/mol): -4.52; log10 Koa: 3.64
O=C(Cl)CCC(=O)Cl	193 °C	20 °C	-0.432	
Clc1c(Cl)c(Cl)c2c(oc3c(Cl)c(Cl)c(Cl)c(Cl)c32)c1Cl		258 °C	-11.4	log10 Koa: 11.9; log10 BCF: 2.89; log10 biotransformation half-life (days): 1.22
COc1cccc(C(=O)NN(C(=O)c2cc(C)cc(C)c2)C(C)(C)C)c1C		204 °C		
CCCC=C(C=O)CC	195 °C		0.107	ready biodegradability: readily biodegradable
CCCCCCC(C)=O	172 °C	-16 °C	0.13	log10 Henry constant (atm·m³/mol): -3.73; ready biodegradability: readily biodegradable
O=[N+]([O-])c1ccc(C2CCCCC2)cc1		58.5 °C		
C=CC(=O)OCCCC	145 °C	-64.6 °C	0.737	ready biodegradability: readily biodegradable
CC(Br)CCBr (stereo unspecified)	174 °C			
C[C@]12Cc3nonc3C[C@@H]1CC[C@@H]1[C@@H]2CC[C@@]2(C)[C@H]1CC[C@]2(C)O		152 °C		
COc1cc2c(cc1OC)C1CC(=O)C(CC(C)C)CN1CC2 (stereo unspecified)		128 °C		
CC/C=C/C=C/C=O		84.5 °C		
CCOCC(O)CO (stereo unspecified)	222 °C			
CN(C)c1cccc2c(S(N)(=O)=O)cccc12		220 °C		
CN(C)CC/C=C1\c2ccccc2CSc2ccccc21		56 °C		
C/C=C/C=O	103 °C	-76.2 °C	1.48	log10 Henry constant (atm·m³/mol): -4.84
